Results published in patent US11713318B2, “Short conjugated oligoelectrolytes and uses thereof” (The Regents Of The University Of California, priority 2018, dated 2023).
Where two headings read alike, the source gives them in different places. Values belong to the compound of their own block, whether it stands above or below them.

What was measured:
[1] = system: E. coli K12 (ATCC 47076); assay: MIC broth microdilution method, Table 3; settings: Escherichia coli, ATCC47076
[2] = system: S. epidermidis (ATCC 14990); assay: MIC broth microdilution method, Table 3; settings: Staphylococcus epidermidis, ATCC14990
[3] = system: Hep G2 (ATCC HB-8065) cells; assay: Cytotoxicity, MTT assay; assay type: cell-based; settings: Homo sapiens, HepG2, 24 h
Description: (§1) Before removing the frozen cell stocks from liquid nitrogen, culture medium was pre-warmed to 37° C. The frozen tube was then removed from liquid nitrogen and placed into a 37° C. water bath and shaken gently to thaw the cell stock as quickly as possible. A small portion of the pre-warmed culture medium was added to the cell solution. The cell suspension was then centrifuged at 1000 r/min for 3 minutes. The supernatant was discarded and the cells were resuspended in fresh culture medium.
(§2) NIH 3T3 (ATCC CRL-1658) and Hep G2 (ATCC HB-8065) cells were cultured with DMEM+10% FBS in 100 mm dishes. Cells were lifted for subculture or testing when confluence reached ˜60% by treating with 1× trypsin (incubated for 3 min at 37° C.). J774 (ATCC TIB-67) cells were cultured with DMEM+10% FBS in 100 mm dishes. Cells were lifted for subculture or testing when confluence reached ˜80% using a cell scraper. RAW264.7 (ATCC TIB-71) cells were cultured with DMEM+10% heat-inactivated FBS+1% pen/strep in T75 flasks. Cells were lifted for subculture or testing when confluence reached ˜80% using a cell scraper.
(§3) • 1. Cells were lifted and resuspended in culture medium. The number of cells in the cell suspension was determined using an auto-cell counter: 10 μL of the cell suspension was mixed with 10 μL 1× trypan blue (filtered with 0.2 μm PES filter) and the mixture was loaded onto a cell counting slide. Based on the concentration of viable cells, the cell suspension was further diluted to achieve the desired density. • 2. Cells were seeded in 96 well plates by adding 100 μL final cell suspension column-by-column using a multichannel pipette (5000 cells/well for NIH 3T3, 10000 cells/well for Hep G2, J774 and RAW264.7). The outer wells were block with PBS to reduce the effects of evaporation. One column was filled with only culture medium as a blank. Cells were incubated overnight before adding the test articles. • 3. Test articles were dissolved in 1×PBS (or DMSO) to obtain stocks solution. Stock solutions were pre-warmed before use. […] Serial dilutions (2-fold) of the 10× solutions were made in sterile culture tubes by diluting in 1×PBS (8 dilutions to yield 9 test concentrations). 900 μL of culture media was added to each tube to obtain final drug solution containing 10% PBS (or less than 1% DMSO) for each experimental group. • 4. The original culture medium was gently removed from the 96-well plates using a pipette. 100 μL of the test article solutions prepared in Step 3 were added to rows 2-7 of each column to obtain six replicates for each concentration. Plates were then incubated for 24 hours. • 5. MTT solutions were prepared by dissolving commercial MTT powder in 1×PBS to a concentration of 5 mg/mL. After passing through a 0.22 μm PES filter, the MTT solution was divided into 1 mL portions in sterile centrifuge tubes and stored at −20° C. • 6. MTT stock solutions were removed from the freezer to thaw at room temperature. Before adding MTT solutions, cell cultures were visually inspected and imaged using a microscope (to use as a comparison with MTT results). 10 μL of the 5 mg/mL MTT solution was added to each well and the plate was incubated for 4 hours. • 7. After 4 h incubation, the culture medium/MT solution was removed gently using a pipette. 100 μL of DMSO was added to each well using a multichannel pipette. The 96-well plates were analyzed in a plate reader using the following method: shake for 5 minutes, wait for 30 seconds, and measure absorbance at 570 nm. • 8. Data processing: The average of background Abg was calculated from the blank column. All other data was first treated by subtracting Abg. The average A. and standard deviation Se of each experimental group and the average Ac and standard deviation Sc for control group (with pure culture medium incubation) were then calculated. The cell viability was determined as Ae/Ac×100% and corresponding error as Se/Ae×100%. Significant outliers in any experimental or control group were removed. […]

[4] = system: NIH 3T3 (ATCC CRL-1658) cells; assay: Cytotoxicity, MTT assay; assay type: cell-based; settings: Mus musculus
Description: as §1, §2, §3

[5] = Cytotoxicity, MTT assay; assay type: cell-based; settings: human, Hep G2 (ATCC HB-8065) cells; Hep G2; at the concentration given as IC50 bound; read-out: cell viability at the highest or lowest test concentration
Description: as §1, §2, §3

[6] = Hep G2, MTT, 24 hours incubation, read-out: IC50

SMILES: C[N+]1(CCCCCCOc2cc(/C=C/c3cc(OCCCCCC[N+]4(C)CCCCC4)cc(OCCCCCC[N+]4(C)CCCCC4)c3)cc(OCCCCCC[N+]3(C)CCCCC3)c2)CCCCC1.[I-].[I-].[I-].[I-] [Formula N]
MIC [1]: 128 µg/mL
MIC [2]: 2 µg/mL
IC50 ([4]; NIH3T3, 24 h): 124 µg/mL

SMILES: C[C@@H](O)[C@H]1C(=O)N2C(C(=O)O)=C(S[C@@H]3CN[C@H](C(=O)N(C)C)C3)[C@H](C)[C@H]12 [Meropenem, reference compound]
IC50 [3, 6]: > 128 µg/mL
viability at 24 h [5]: 96%

SMILES: C(=C\c1cc(OCCCCCC[n+]2ccccc2)cc(OCCCCCC[n+]2ccccc2)c1)/c1cc(OCCCCCC[n+]2ccccc2)cc(OCCCCCC[n+]2ccccc2)c1.[I-].[I-].[I-].[I-] [Formula C]
IC50 [3]: 29.7 µg/mL

SMILES: C[N+](C)(C)CCCCCCN(CCCCCC[N+](C)(C)C)c1ccc(/C=C/c2ccc(/C=C/c3ccc(N(CCCCCC[N+](C)(C)C)CCCCCC[N+](C)(C)C)cc3)cc2)cc1 [Formula UU]
IC50 [3, 6]: 43.7 µg/mL

SMILES: C[N+](C)(C)CCCCCCCCOc1cc(/C=C/c2cc(OCCCCCCCC[N+](C)(C)C)cc(OCCCCCCC[N+](C)(C)C)c2)cc(OCCCCCCC[N+](C)(C)C)c1.[I-].[I-].[I-].[I-] [Formula B]
IC50 [3]: 9.9 µg/mL

Now from value to compound, other results behind:

MIC [1]: 16 µg/mL
MIC [2]: 2 µg/mL
SMILES: C[N+](C)(C)CCCCCCOc1cc(/C=C/c2ccc(/C=C/c3ccccc3)cc2)cc(OCCCCCC[N+](C)(C)C)c1OCCCCCC[N+](C)(C)C [Formula WW]
IC50 [3, 6]: 45.4 µg/mL
IC50 ([4]; NIH3T3, NIH 3T3, MTT, 24 hours incubation, read-out: IC50): 30.9 µg/mL

MIC [1]: 64 µg/mL
MIC [2]: 16 µg/mL
SMILES: C[N+]12CC[N+](CCCOc3cc(/C=C/c4ccc(/C=C/c5cc(OCCC[N+]67CC[N+](C)(CC6)CC7)cc(OCCC[N+]67CC[N+](C)(CC6)CC7)c5)cc4)cc(OCCC[N+]45CC[N+](C)(CC4)CC5)c3)(CC1)CC2 [Formula DD]
IC50 [3, 6]: > 128 µg/mL
viability at 24 h [5]: 85%

MIC [1]: 4 µg/mL
SMILES: CC(C)CCC[N+](C)(C)CCCCOc1cc(/C=C/c2ccc(/C=C/c3cc(OCCCC[N+](C)(C)CCCC(C)C)cc(OCCCC[N+](C)(C)CCCC(C)C)c3)cc2)cc(OCCCC[N+](C)(C)CCCC(C)C)c1.[I-].[I-].[I-].[I-] [Formula V]

MIC [1]: 32 µg/mL
SMILES: CC[N+](C)(C)CCCOc1cc(/C=C/c2ccc(/C=C/c3cc(OCCC[N+](C)(C)CC)cc(OCCC[N+](C)(C)CC)c3)cc2)cc(OCCC[N+](C)(C)CC)c1 [Formula Y]
IC50 [3, 6]: > 1020 µg/mL
viability at 24 h [5]: 61%

MIC [1]: 64 µg/mL
SMILES: C[N+](C)(C)CCCOc1cc(/C=C/c2ccc(/C=C/c3cc(OCCC[N+](C)(C)C)cc(OCCC[N+](C)(C)C)c3)cc2)cc(OCCC[N+](C)(C)C)c1 [Formula X]
IC50 [3, 6]: > 1020 µg/mL
viability at 24 h [5]: 73%
